One series has as its system food intake. The series can be described thus: Pharmacological Assay (I) - efficacy testing on appetite, ad libitum fed rat model. It counts as in vivo, Sprague Dawley (SD) rats. The settings on record: 30 nmol/kg vs vehicle, ad libitum fed rats, n=5-7, 0-48 hours. From the text: Assays Pharmacological Assay (I)—Experimental Protocol for Efficacy Testing on Appetite with an Amylin Derivative, Using an Ad Libitum Fed Rat Model. Sprague Dawley (SD) rats from Taconic Europe, Denmark are used for the experiments. The rats have a body weight 200-250 g at the start of experiment. The rats arrive at least 10-14 days before start of experiment to allow acclimatization to experimental settings. During this period the animals are handled at least 2 times. After arrival rats are housed individually for one week in a reversed light/dark phase (meaning that lights are off during daytime and on during nighttime) for two weeks. Since rats are normally active and eat their major part of their daily food intake during the dark period, rats are dosed in the morning right before lights are turned off. This set-up results in the lowest data variation and highest test sensitivity. The experiment is conducted in the rats' home cages and rats have free access to food and water throughout the acclimatization period and the experiment period. Each dose of derivative is tested in a group of 5-8 rats. A vehicle group of 6-8 rats is included in each set of testing. Rats are dosed once according to body weight with a 0.01-3 mg/kg solution administered intraperitoneally (ip), orally (po) or subcutaneously (sc). The time of dosing is recorded for each group. After dosing, the rats are returned to their home cages, where they then have access to food and water. The food consumption is recorded individually continuously by on-line registration or manually every hour for 7 hours, and then after 24 h and sometimes 48 h. At the end of the experimental session, the animals are euthanized. The individual data are recorded in Microsoft excel sheets. Outliers are excluded after applying the Grubbs statistical evaluation test for outliers, and the result is presented graphically using the GraphPad Prism program.

Series [1] concerns the target T1, Amylin 3(a) receptor (human calcitonin receptor (CTa) and RAMP-3) (Homo sapiens, UniProt O60896+P30988).
T1 construct: expressed in transfected cells; host or cells: BHK570 cells, stably transfected with a CRE-luciferase reporter
The series can be described thus: Luciferase assay (III), BHK Amylin 3(a)//CRE-luc cells. It counts as cell-based. The settings on record: BHK cells with Amylin 3(a) receptor and CRE luciferase reporter, 4 hours incubation; read-out: Potency Luciferase. The method in brief: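 BHK570 cells stably expressing CTa, RAMP-3 and a CRE-luciferase reporter, seeded at about 20,000 cells/well and grown overnight. Cells were exposed to standard or sample for 4 h at 37° C in phenol red-free DMEM with 10% FBS and 10 mM Hepes, pH 7,4. Luminescence was read after 30 min LucLite at room temperature.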

Series [2] can be described thus: Assay (V) PK - determination of T½ in mini-pig. It is filed as in vivo. The following applies: minipig, sc; terminal plasma half-life, subcutaneous, approx 2 nmol/kg, male Göttingen mini-pigs. The method in brief:
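Male Göttingen mini-pigs (5–12 months, 7–35 kg) got a single s.c. neck injection of approx 2 nmol/kg; plasma sampled via central venous catheter predose to 240 h (some to 288 h). Amylin measured by sandwich ELISA; T½ = ln 2/λz from non-compartmental analysis of individual profiles.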

*1 amine or outer side, *2 acyl side, *3 side chain or, on linkers, in order; H or OH if unused. Where a SMILES comes first, the peptide text is derived from it. Bridges are numbered along the chain shown (N, C = ends). The star is where a group is joined. C20 diacid = O=C(O)CCCCCCCCCCCCCCCCCCC(=O)*; C18 diacid = O=C(O)CCCCCCCCCCCCCCCCC(=O)*; γGlu = O=C(O)[C@H](CCC(=O)[*:2])N[*:1]; AEEA = NCCOCCOCC(=O)O

T1 sequence (O60896 24-148): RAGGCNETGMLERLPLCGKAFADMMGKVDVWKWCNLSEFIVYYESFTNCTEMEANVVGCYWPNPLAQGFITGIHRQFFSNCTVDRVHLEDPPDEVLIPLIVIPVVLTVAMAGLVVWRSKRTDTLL
T1 sequence (P30988 25-474): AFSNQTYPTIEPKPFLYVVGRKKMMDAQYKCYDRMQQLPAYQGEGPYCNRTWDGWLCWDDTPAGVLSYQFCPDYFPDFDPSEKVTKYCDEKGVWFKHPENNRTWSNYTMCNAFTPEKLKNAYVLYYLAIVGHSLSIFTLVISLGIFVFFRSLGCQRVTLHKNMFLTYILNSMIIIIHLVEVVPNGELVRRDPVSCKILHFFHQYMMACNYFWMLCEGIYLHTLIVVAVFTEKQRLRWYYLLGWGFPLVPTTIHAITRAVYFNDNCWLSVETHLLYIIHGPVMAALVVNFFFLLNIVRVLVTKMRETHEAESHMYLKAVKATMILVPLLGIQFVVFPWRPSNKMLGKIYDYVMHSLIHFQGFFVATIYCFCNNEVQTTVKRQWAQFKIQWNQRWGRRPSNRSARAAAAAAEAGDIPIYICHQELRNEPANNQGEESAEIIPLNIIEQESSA

As a reminder, the half-life is the time in which the quantity being followed falls by half. Regarding `CC[C@H](C)[C@H](NC(=O)[C@@H]1CCCN1C(=O)CNC(=O)[C@H](Cc1ccccc1)NC(=O)[C@H](CC(N)=O)NC(=O)[C@H](CC(N)=O)NC(=O)[C@H](CO)NC(=O)[C@H](CO)NC(=O)[C@H](Cc1c[nH]cn1)NC(=O)[C@H](Cc1c[nH]cn1)NC(=O)[C@H](CC(C)C)NC(=O)[C@H](Cc1ccccc1)NC(=O)[C@H](CC(N)=O)NC(=O)[C@H](C)NC(=O)[C@H](CC(C)C)NC(=O)[C@H](CCCNC(=N)N)NC(=O)[C@H](CCC(N)=O)NC(=O)[C@@H](NC(=O)[C@H](C)NC(=O)[C@@H]1CSSC[C@H](NC(=O)[C@H](Cc2c[nH]cn2)NC(=O)[C@H](Cc2c[nH]cn2)NC(=O)CC[C@H](NC(=O)CCCCCCCCCCCCCCCCCCC(=O)O)C(=O)O)C(=O)N[C@@H](CC(N)=O)C(=O)N[C@@H]([C@@H](C)O)C(=O)N[C@@H](C)C(=O)N[C@@H]([C@@H](C)O)C(=O)N1)[C@@H](C)O)C(=O)N[C@@H](CC(C)C)C(=O)N1CCC[C@H]1C(=O)N1CCC[C@H]1C(=O)N[C@H](C(=O)N[C@@H](CC(N)=O)C(=O)N[C@H](C(=O)NCC(=O)N[C@@H](CO)C(=O)N[C@@H](CC(N)=O)C(=O)N[C@H](C(=O)N[C@@H](Cc1ccc(O)cc1)C(N)=O)[C@@H](C)O)C(C)C)[C@@H](C)O` [Example 27, N-alpha-[(S)-4-Carboxy-4-(19-carboxynonadecanoylamino)butyryl]-His-[His1,His17]-pramlintide] ({C20 diacid-γGlu}-HHCNTATCATQRLANFLHHSSNNFGPILPPTNVGSNTY-NH2; disulfide 3-8), the “food intake over a period of 48 hours” value in the series with food intake was “effectively reducing food intake”. Also, in series [1], the EC50 was 0.1 nM. For the same compound, the half-life in series [2] was 64 h.
Turning to `CC[C@H](C)[C@H](NC(=O)[C@@H]1CCCN1C(=O)CNC(=O)[C@H](Cc1ccccc1)NC(=O)[C@H](CC(N)=O)NC(=O)[C@H](CC(N)=O)NC(=O)[C@H](CO)NC(=O)[C@H](CO)NC(=O)[C@H](Cc1c[nH]cn1)NC(=O)[C@H](Cc1c[nH]cn1)NC(=O)[C@H](CC(C)C)NC(=O)[C@H](Cc1ccccc1)NC(=O)[C@H](CC(N)=O)NC(=O)[C@H](C)NC(=O)[C@H](CC(C)C)NC(=O)[C@H](CCCNC(=N)N)NC(=O)[C@H](CCC(N)=O)NC(=O)[C@@H](NC(=O)[C@H](C)NC(=O)[C@@H]1CSSC[C@H](NC(=O)[C@H](Cc2c[nH]cn2)NC(=O)[C@H](Cc2c[nH]cn2)NC(=O)CC[C@H](NC(=O)CCCCCCCCCCCCCCCCC(=O)O)C(=O)O)C(=O)N[C@@H](CC(N)=O)C(=O)N[C@@H]([C@@H](C)O)C(=O)N[C@@H](C)C(=O)N[C@@H]([C@@H](C)O)C(=O)N1)[C@@H](C)O)C(=O)N[C@@H](CC(C)C)C(=O)N1CCC[C@H]1C(=O)N1CCC[C@H]1C(=O)N[C@H](C(=O)N[C@@H](CC(N)=O)C(=O)N[C@H](C(=O)NCC(=O)N[C@@H](CO)C(=O)N[C@@H](CC(N)=O)C(=O)N[C@H](C(=O)N[C@@H](Cc1ccc(O)cc1)C(N)=O)[C@@H](C)O)C(C)C)[C@@H](C)O` [Example 31, N-alpha-[(S)-4-Carboxy-4-(17-carboxyheptadecanoylamino)butyryl]-His-[His1,His17]-pramlintide] ({C18 diacid-γGlu}-HHCNTATCATQRLANFLHHSSNNFGPILPPTNVGSNTY-NH2; disulfide 3-8), the “food intake over a period of 48 hours” value in the series with food intake is “effectively reducing food intake”. Further, the EC50 in series [1] stood at 0.02 nM. Besides, the half-life in series [2] was 41 h.
Regarding `CC[C@H](C)[C@H](NC(=O)[C@@H]1CCCN1C(=O)CNC(=O)[C@H](Cc1ccccc1)NC(=O)[C@H](CC(N)=O)NC(=O)[C@H](CC(N)=O)NC(=O)[C@H](CO)NC(=O)[C@H](CO)NC(=O)[C@H](Cc1c[nH]cn1)NC(=O)[C@H](Cc1c[nH]cn1)NC(=O)[C@H](CC(C)C)NC(=O)[C@H](Cc1ccccc1)NC(=O)[C@H](CC(N)=O)NC(=O)[C@H](C)NC(=O)[C@H](CC(C)C)NC(=O)[C@H](CCCNC(=N)N)NC(=O)[C@H](CCC(N)=O)NC(=O)[C@@H](NC(=O)[C@H](C)NC(=O)[C@@H]1CSSC[C@H](NC(=O)[C@H](CCCNC(=N)N)NC(=O)COCCOCCNC(=O)COCCOCCNC(=O)CC[C@H](NC(=O)CCCCCCCCCCCCCCCCC(=O)O)C(=O)O)C(=O)N[C@@H](CC(N)=O)C(=O)N[C@@H]([C@@H](C)O)C(=O)N[C@@H](C)C(=O)N[C@@H]([C@@H](C)O)C(=O)N1)[C@@H](C)O)C(=O)N[C@@H](CC(C)C)C(=O)N1CCC[C@H]1C(=O)N1CCC[C@H]1C(=O)N[C@H](C(=O)N[C@@H](CC(N)=O)C(=O)N[C@H](C(=O)NCC(=O)N[C@@H](CO)C(=O)N[C@@H](CC(N)=O)C(=O)N[C@H](C(=O)N[C@@H](Cc1ccc(O)cc1)C(N)=O)[C@@H](C)O)C(C)C)[C@@H](C)O` [Example 45, N-alpha-[2-(2-{2-[2-(2-{2-[(S)-4-Carboxy-4-(17-carboxyheptadecanoylamino)butyrylamino]ethoxy}ethoxy)acetylamino]ethoxy}ethoxy)acetyl][Arg1,His17]-pramlintide] ({C18 diacid-γGlu-AEEA-AEEA}-RCNTATCATQRLANFLHHSSNNFGPILPPTNVGSNTY-NH2; disulfide 2-7), in the series with food intake, the “food intake over a period of 48 hours” value is listed as “effectively reducing food intake”. Also, in series [1], the EC50 is 0.03 nM.
Turning to `CC[C@H](C)[C@H](NC(=O)[C@@H]1CCCN1C(=O)CNC(=O)[C@H](Cc1ccccc1)NC(=O)[C@H](CC(N)=O)NC(=O)[C@H](CC(N)=O)NC(=O)[C@H](CO)NC(=O)[C@H](CO)NC(=O)[C@H](CCCNC(=N)N)NC(=O)[C@H](Cc1c[nH]cn1)NC(=O)[C@H](CC(C)C)NC(=O)[C@H](Cc1ccccc1)NC(=O)[C@H](CC(N)=O)NC(=O)[C@H](C)NC(=O)[C@H](CC(C)C)NC(=O)[C@H](CCCNC(=N)N)NC(=O)[C@H](CCC(N)=O)NC(=O)[C@@H](NC(=O)[C@H](C)NC(=O)[C@@H]1CSSC[C@H](NC(=O)[C@H](Cc2c[nH]cn2)NC(=O)[C@H](Cc2c[nH]cn2)NC(=O)CC[C@H](NC(=O)CCCCCCCCCCCCCCCCCCC(=O)O)C(=O)O)C(=O)N[C@@H](CC(N)=O)C(=O)N[C@@H]([C@@H](C)O)C(=O)N[C@@H](C)C(=O)N[C@@H]([C@@H](C)O)C(=O)N1)[C@@H](C)O)C(=O)N[C@@H](CC(C)C)C(=O)N1CCC[C@H]1C(=O)N1CCC[C@H]1C(=O)N[C@H](C(=O)N[C@@H](CC(N)=O)C(=O)N[C@H](C(=O)NCC(=O)N[C@@H](CO)C(=O)N[C@@H](CC(N)=O)C(=O)N[C@H](C(=O)N[C@@H](Cc1ccc(O)cc1)C(N)=O)[C@@H](C)O)C(C)C)[C@@H](C)O` [Example 47, N-alpha-[(S)-4-Carboxy-4-(19-carboxynonadecanoylamino)butyryl]-His-[His1,His17,Arg18]-pramlintide] ({C20 diacid-γGlu}-HHCNTATCATQRLANFLHRSSNNFGPILPPTNVGSNTY-NH2; disulfide 3-8), the “food intake over a period of 48 hours” value with food intake was “effectively reducing food intake”. In addition, the EC50 in series [1] was determined as 0.2 nM. Further, in series [2], the half-life was 30 h.

(Values after US8895504B2, “Amylin derivatives” (priority 2008, dated 2014).)
